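Tested at 5 concentrations; 48 h exposure; 96-well plates; endpoints linearly interpolated, else capped at highest concentration. At the GI50, growth is halved. TGI marks complete inhibition of growth.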
Legend:
Experiment in all cases: DTP human tumour cell line panel, 48 h
[1] = system: NCI/ADR-RES ovarian
[2] = system: UACC-62 melanoma
[3] = system: ACHN renal
[4] = system: SN12C renal
[5] = system: U251 CNS
[6] = system: SF-295 CNS
[7] = system: HS 578T breast
[8] = system: NCI-H226 lung
[9] = system: RXF 393 renal
[10] = system: SK-MEL-5 melanoma
[11] = system: RPMI-8226 leukemia
[12] = system: MOLT-4 leukemia
[13] = system: CAKI-1 renal
[14] = system: MCF7 breast
[15] = system: NCI-H460 lung
[16] = system: NCI-H23 lung
[17] = system: EKVX NSCLC
[18] = system: HOP-62 NSCLC
[19] = system: SK-MEL-2 melanoma
[20] = system: MDA-MB-231 breast
[21] = system: SNB-19 CNS
[22] = system: 786-0 renal
[23] = system: T-47D breast
[24] = system: PC-3 prostate
[25] = system: HL-60(TB) leukemia
[26] = system: OVCAR-5 ovarian
[27] = system: IGROV1 ovarian
[28] = system: MALME-3M melanoma
[29] = system: HOP-92 NSCLC
[30] = system: CCRF-CEM leukemia
[31] = system: TK-10 renal
[32] = system: SR leukemia
[33] = system: SK-OV-3 ovarian
[34] = system: HCT-116 colon
[35] = system: OVCAR-8 ovarian
[36] = system: MDA-MB-435
[37] = system: UACC-257 melanoma
[38] = system: SF-539 CNS
[39] = system: SK-MEL-28 melanoma
[40] = system: OVCAR-4 ovarian
[41] = system: A498 renal
[42] = system: UO-31 renal
[43] = system: HCT-15 colon
[44] = system: COLO 205 colon
[45] = system: K-562 leukemia
[46] = system: SNB-75 CNS
[47] = system: M14 melanoma
[48] = system: NCI-H522 lung
[49] = system: HT29 colon
[50] = system: A549 NSCLC
[51] = system: SW-620 colon
[52] = system: SF-268 CNS
[53] = system: BT-549 breast
[54] = system: LOX IMVI melanoma
[55] = system: DU-145 prostate
[56] = system: KM12 colon
[57] = system: HCC-2998 colon

## Oc1ccc(-c2nnc(SCc3ccc(O)c4ncccc34)o2)cc1
[1]
  GI50: 1540 nM
  TGI: > 73700 nM
[2]
  GI50: 2430 nM
  TGI: 7100 nM
[3]
  GI50: 1080 nM
  TGI: 10100 nM
[4]
  GI50: 417 nM
  TGI: > 38500 nM
[5]
  GI50: 386 nM
  TGI: 13700 nM
[6]
  GI50: 978 nM
  TGI: 10600 nM
[7]
  GI50: 388 nM
  TGI: > 22300 nM
[8]
  GI50: 3130 nM
  TGI: > 100000 nM
[9]
  GI50: 1430 nM
  TGI: 34300 nM
[10]
  GI50: 854 nM
  TGI: > 22800 nM
[11]
  GI50: 544 nM
  TGI: > 100000 nM
[12]
  GI50: 1260 nM
  TGI: > 100000 nM
[13]
  GI50: 2260 nM
  TGI: 8840 nM
[14]
  GI50: 721 nM
  TGI: > 100000 nM
[15]
  GI50: 364 nM
  TGI: 5090 nM
[16]
  GI50: 527 nM
  TGI: 11600 nM
[17]
  GI50: 2630 nM
  TGI: 11300 nM
[18]
  GI50: 543 nM
  TGI: 7590 nM
[19]
  GI50: 587 nM
  TGI: 6910 nM
[20]
  GI50: 1960 nM
  TGI: 14700 nM
[21]
  GI50: 450 nM
  TGI: 38200 nM
[22]
  GI50: 2640 nM
  TGI: 9550 nM
[23]
  GI50: 2430 nM
  TGI: 9390 nM
[24]
  GI50: 584 nM
  TGI: > 100000 nM
[25]
  GI50: 1390 nM
  TGI: 6190 nM
[26]
  GI50: 3330 nM
  TGI: > 100000 nM
[27]
  GI50: 2230 nM
  TGI: 13200 nM
[28]
  GI50: 1960 nM
  TGI: 17600 nM
[29]
  GI50: 219 nM
  TGI: 747 nM
[30]
  GI50: 833 nM
  TGI: > 100000 nM
[31]
  GI50: 2250 nM
  TGI: 7840 nM
[32]
  GI50: 1100 nM
  TGI: > 100000 nM
[33]
  GI50: 1770 nM
  TGI: 6540 nM
[34]
  GI50: 379 nM
  TGI: 26300 nM
[35]
  GI50: 440 nM
  TGI: > 40000 nM
[36]
  GI50: 418 nM
  TGI: > 100000 nM
[37]
  GI50: 2530 nM
  TGI: 7890 nM
[38]
  GI50: 666 nM
  TGI: 15000 nM
[39]
  GI50: 2080 nM
  TGI: > 100000 nM
[40]
  GI50: 3410 nM
  TGI: > 100000 nM
[41]
  GI50: 2370 nM
  TGI: 7490 nM
[42]
  GI50: 1350 nM
  TGI: 6440 nM
[43]
  GI50: 510 nM
  TGI: > 100000 nM
[44]
  GI50: 3060 nM
  TGI: 11400 nM
[45]
  GI50: 418 nM
  TGI: > 100000 nM
[46]
  GI50: 898 nM
  TGI: 8400 nM
[47]
  GI50: 544 nM
  TGI: 3880 nM
[48]
  GI50: 402 nM
  TGI: 20500 nM
[49]
  GI50: 3570 nM
  TGI: > 100000 nM
[50]
  GI50: 839 nM
  TGI: > 31100 nM
[51]
  GI50: 680 nM
  TGI: > 100000 nM
[52]
  GI50: 658 nM
  TGI: 35300 nM
[53]
  GI50: 444 nM
  TGI: 21200 nM
[54]
  GI50: 406 nM
  TGI: 11900 nM
[55]
  GI50: 582 nM
  TGI: 28900 nM
[56]
  GI50: 1560 nM
  TGI: > 100000 nM
[57]
  GI50: 3220 nM
  TGI: > 68800 nM

From PubChem BioAssay (NCI)
